According to patent publication US20040110776A1, “Use of propentofylline to control intraocular pressure” (priority 2003, published 2004):

How the values were obtained:
[1] = tested on: human anterior segment; settings: perfusion of the anterior segment; cited from earlier work
[2] = tested on: MMP-3 expression in cultured human trabecular meshwork (HTM-35D) cells; test: MMP-3 expression in cultured human trabecular meshwork (HTM-35D) cells, proMMP-3 ELISA of medium; type: cell-based; settings: 72 hours; for change in MMP-3 expression in the TM cells: indicated concentration (FIG. 1, lower panel)
Source text: Propentofylline was unexpectedly discovered to stimulate the expression of metalloproteinase-3 (MMP-3; stromelysin) in cultured human trabecular meshwork cells.
Effect of Various Compounds on MMP-3 Expression in Cultured Human Trabecular Meshwork (HTM-35D) Cells
Human TM cells were isolated, characterized and cultured as described (Steely et al, The effects of dexamethasone on fibronectin expression in cultured human trabecular meshwork cells, Investigative Ophthalmology and Visual Science, 1992;33:2242-2250) They were maintained at 5% CO2 and 37° C. in a medium consisting of Dulbecco's modified Eagle medium with Glutamax I supplemented with 10% fetal bovine serum and 50 μg/mL gentamicin. Confluent cell cultures were treated with the indicated compounds at the indicated final concentration for 72 hours and the medium assayed for proMMP-3 by a commercially available ELISA assay kit. (See FIG. 1.) Abbreviations: PPF-OH is hydroxypropentofylline.

[3] = tested on: IOP in ocular normotensive rabbits; settings: topical instillation of 2%; cited from earlier work
[4] = tested on: Rabbit IOP; test: Rabbit IOP after topical ocular dosing (pneumatonometer); type: in vivo; settings: for effect on IOP of rabbits (in words): 500 μg topical (2×25 μL, 1% solution); for % Change in IOP Mean / IOP (mmHg) Mean: 500 μg topical, n = 10
Protocol: When propentofylline was tested in the rabbit for its potential effect on IOP. […] In this study, the rabbits were placed in restrainers, and IOP was determined with an Alcon Pneumatonometer after light corneal anesthesia with 0.1% proparacaine (Alcaine® diluted with physiogical saline). Following each IOP measurement, residual anesthetic was washed away with saline. After two baseline measurements, animals were dosed topically on the cornea with vehicle or propentofylline (2×25 μL, 1% solution). IOP measurements were taken at indicated intervals.

[5] = tested on: lasered monkey eyes; test: IOP in lasered (ocular hypertensive) monkey eyes; type: in vivo; settings: for IOP-lowering effect, single dose: 500 μg in aqueous solution, topical, lasered eye of unanesthetized monkeys; for IOP-lowering effect after repeated doses: 500 μg twice daily, 7 consecutive days, lasered monkey eyes
Protocol: The IOP-lowering effect of propentofylline in primates was discovered when tested in ocular hypertensive monkeys. In this animal model, the IOP of cynomolgus monkeys was artificially elevated by laser-induced photocoagulation of the TM.
Top Panel: IOP-lowering effect of Propentofylline (PPF) (500 μg) in lasered monkey eyes.
These monkeys received 500 μg of propentofylline twice daily for the indicated days and the IOP was measured right after the morning dosing.
Studies were performed as described previously (Toris, et al., Aqueous humor dynamics in monkeys with laser-induced glaucoma, Journal of Ocular Pharmacology and Therapeutics, 2000;16:19-27). (See FIG. 3.)

[6] = tested on: anterior segments of non-glaucomatous donor eyes; test: Outflow in human ocular perfusion organ culture; settings: 100 μM continuous perfusion, days 2 and 3 after initiation of perfusion
Protocol: In this ex vivo study, the anterior segments of non-glaucomatous donor eyes were perfused continuously with 100 μM of propentofylline.
Human ocular perfusion organ culture was performed as described (Tschumper, et al. Glycosaminoglycans of human trabecular meshwork in perfusion organ culture. Current Eye Research, 1990;9:363-369; Clark et al, Dexamethasone-induced ocular hypertension in perfusion-cultured human eyes. Investigative Ophthalmology and Visual Science 1995;36:478-489). Briefly, human cadaver eyes, 16 to 20 hours post mortem, were dissected at the equator and the lens, vitreous and iris were removed. The anterior segment of the eye, including cornea and sclera ring containing TM and ciliary body, was placed into a custom-made plexiglass culture dish and sealed in place with a plexiglass O-ring. Culture media (Dulbecco's modified Eagle medium) was placed in a reservoir and perfused through a central cannula in the bottom of the dish. The reservoir was raised to generate approximately 11 mmHg of hydrostatic pressure relative to the center of the perfused eye. The weight of the reservoir was recorded daily. […]
After a 2-4 days stabilization period, the eyes were perfused with either 100 μM propentofylline (PPF) or vehicle alone and their outflow rates monitored for is another 4 days. * represents p<0.05 by Student's t-test. […]

[7] = tested on: IOP in the rabbit; settings: cited from earlier work

N[C@@H](Cc1c[nH]c2ccccc12)C(=O)NO [L-tryptophan hydroxamate]
effect on outflow facility / aqueous outflow (in words) [1]: suppressed aqueous outflow

CC(=O)CCCCn1c(=O)c2c(ncn2C)n(C)c1=O [Pentoxifylline]
change in MMP-3 expression in the TM cells [2]: did not produce a statistically significant change | effect on IOP [3]: slight decrease in IOP | effect on IOP of rabbits (in words) [4]: did not significantly lower IOP | % Change in IOP Mean ([4]; 0 hour after treatment): 0.0% | IOP (mmHg) Mean ([4]; 0 hour after treatment): 23.8 mmHg | % Change in IOP Mean ([4]; 1 hour after treatment): −8.9% | IOP (mmHg) Mean ([4]; 1 hour after treatment): 21.6 mmHg | % Change in IOP Mean ([4]; 3 hours after treatment): −1.8% | IOP (mmHg) Mean ([4]; 3 hours after treatment): 23.1 mmHg | % Change in IOP Mean ([4]; 5 hours after treatment): 17.5% | IOP (mmHg) Mean ([4]; 5 hours after treatment): 27.8 mmHg | % Change in IOP Mean ([4]; 7 hours after treatment): 15.9% | IOP (mmHg) Mean ([4]; 7 hours after treatment): 27.3 mmHg

CCCn1cnc2c1c(=O)n(CCCCC(C)=O)c(=O)n2C [Propentofylline, 3-methyl-1-(5′-oxohexyl)-7-propyl-xanthine]
IOP-lowering effect, single dose [5]: clearly reduced IOP at 1 hour | IOP-lowering effect, single dose ([5]; listed as propentofylline): dramatic decrease in IOP | IOP-lowering effect after repeated doses [5]: ocular hypotensive even after repeated doses | IOP-lowering effect after repeated doses ([5]; listed as propentofylline): persisted even after 7 consecutive days | tolerability ([5]; monkeys, 500 μg topical): well tolerated | expression of MMP-3 ([2]; 100 μM, cultured human trabecular meshwork cells): significantly increased the expression of MMP-3 | outflow rates compared to vehicle-treated eyes [6]: significantly increased | effect on IOP of rabbits (in words) [4]: did not affect the IOP of rabbits | tolerability ([4]; 500 μg topical onto the eye): well tolerated | % Change in IOP Mean ([4]; 0 hour after treatment): 0.0% | IOP (mmHg) Mean ([4]; 0 hour after treatment): 23.5 mmHg | % Change in IOP Mean ([4]; 1 hour after treatment): −10.0% | IOP (mmHg) Mean ([4]; 1 hour after treatment): 21.0 mmHg | % Change in IOP Mean ([4]; 3 hours after treatment): 1.3% | IOP (mmHg) Mean ([4]; 3 hours after treatment): 23.6 mmHg | % Change in IOP Mean ([4]; 5 hours after treatment): 1.1% | IOP (mmHg) Mean ([4]; 5 hours after treatment): 23.5 mmHg | % Change in IOP Mean ([4]; 7 hours after treatment): 4.7% | IOP (mmHg) Mean ([4]; 7 hours after treatment): 24.0 mmHg

OCCN(CCO)c1nc(N2CCCCC2)c2nc(N(CCO)CCO)nc(N3CCCCC3)c2n1 [dipyridamole]
change in MMP-3 expression in the TM cells [2]: did not produce a statistically significant change

CCCn1cnc2c1c(=O)n(CCCCC(C)O)c(=O)n2C (stereo not drawn) [hydroxy-propentofylline]
change in MMP-3 expression in the TM cells [2]: did not produce a statistically significant change

CC(C)OC(=O)CCC/C=C\C[C@@H]1[C@@H](CC[C@@H](O)CCc2ccccc2)[C@H](O)C[C@@H]1O [latanoprost]
effect on IOP in the rabbit [7]: no measurable effect on IOP

CN(C)c1ccc(O)c2c1C[C@H]1C[C@H]3[C@H](N(C)C)C(O)=C(C(N)=O)C(=O)[C@@]3(O)C(O)=C1C2=O [minocylcine]
effect on outflow facility / aqueous outflow (in words) [1]: suppressed aqueous outflow

CC[C@@H]1C(=O)OC[C@@H]1Cc1cncn1C [pilocarpine]
effect on IOP in the rabbit [7]: no measurable effect on IOP

B1: interleukin-1α: cytokine known to increase the expression of matrix metalloproteinases in the TM (protein, UniProt P01583 113-271, looked up)
Interleukin-1 alpha: SAPFSFLSNVKYNFMRIIKYEFILNDALNQSIIRANDQYLTAAALHNLDEAVKFDMGAYKSSKDDAKITVILRISKTQLYVTAQDEDQPVLLKEMPEIPKTITGSETNLLFFWETHGTKNYFTSVAHPNLFIATKQDYWVCLAGGPPSITDFQILENQA
effect on outflow facility / aqueous outflow (in words) [1]: augmented the outflow facility
